Test results published in ChEMBL document CHEMBL3045234, “Synthesis of new pyridazinone derivatives as platelet aggregation inhibitors” (2010).

Assays:
Assay type in all cases: functional
[1] = Antiplatelet activity in Mus musculus Laca (mouse) platelet assessed as bleeding time at 60 mg/kg, po after 1 hr by tail transaction bleeding test (reference value: 3.2 +/- 0.218 min)
[2] = Antiplatelet activity in Mus musculus Laca (mouse) platelet assessed as bleeding time at 30 mg/kg, po after 1 hr by tail transaction bleeding test (reference value: 3.2 +/- 0.218 min)
[3] = Antiplatelet activity in Mus musculus Laca (mouse) platelet assessed as bleeding time at 15 mg/kg, po after 1 hr by tail transaction bleeding test (reference value: 3.2 +/- 0.218 min)
[4] = Antiplatelet activity in Mus musculus Laca (mouse) platelet assessed as bleeding time at 7.5 mg/kg, po after 1 hr by tail transaction bleeding test (reference value: 3.2 +/- 0.218 min)
[5] = Antiplatelet activity in Mus musculus Laca (mouse) platelet assessed as bleeding time at 15 mg/kg, po after 1 hr by tail transaction bleeding test relative to aspirin

Row | Structure (SMILES) | Time [1] [min] | Time [2] [min] | Time [3] [min] | Time [4] [min] | fold change (FC) [5]
1 | O=C1CCC(c2ccc(NCc3ccc(F)cc3)cc2)=NN1 | 7 | 6.2 | 4.9 | 3.8 | –
2 | CC(=O)Oc1ccccc1C(=O)O [ASPIRIN] | 6.6 | 6.1 | 5.3 | 4.2 | –
3 | COc1cc(CNc2ccc(C3=NNC(=O)CC3)cc2)cc(OC)c1OC | 6.5 | 6.1 | 5.2 | 4.4 | –
4 | O=C1CCC(c2ccc(NCc3c[nH]c4ccccc34)cc2)=NN1 | 9.7 | 9.2 | 8.3 | 5.5 | >2
5 | O=C1CCC(c2ccc(NCc3ccncc3)cc2)=NN1 | 7 | 6.2 | 5.3 | 4.3 | –
6 | O=C1CCC(c2ccc(NCc3ccccc3O)cc2)=NN1 | 9.2 | 8.5 | 7.4 | 4.4 | –
7 | COc1ccc(CNc2ccc(C3=NNC(=O)CC3)cc2)cc1OC | 7.1 | 6.5 | 5.6 | 4.2 | –
8 | COc1cc(CNc2ccc(C3=NNC(=O)CC3)cc2)ccc1O | 7.3 | 6.1 | 5.2 | 4.1 | –
9 | O=C1CCC(c2ccc(NCc3cccnc3)cc2)=NN1 | 6.6 | 6.2 | 5.5 | 4.1 | –
